Ki and Kd data for two compounds are collected here from paper PMC3627370 (Journal of the American Chemical Society, 2013).

SMILES strings stand for the structures.

In assay [1] the target is T1, nicotinamide phosphoribosyltransferase (NAMPT) (Homo sapiens, UniProt P43490). It counts as biochemical.
Assay [2] concerns the target T1, nicotinamide phosphoribosyltransferase (NAMPT). Briefly: dissociation constant determination at […] °C, pH […]. The class given is binding.

T1 sequence (P43490 whole entry): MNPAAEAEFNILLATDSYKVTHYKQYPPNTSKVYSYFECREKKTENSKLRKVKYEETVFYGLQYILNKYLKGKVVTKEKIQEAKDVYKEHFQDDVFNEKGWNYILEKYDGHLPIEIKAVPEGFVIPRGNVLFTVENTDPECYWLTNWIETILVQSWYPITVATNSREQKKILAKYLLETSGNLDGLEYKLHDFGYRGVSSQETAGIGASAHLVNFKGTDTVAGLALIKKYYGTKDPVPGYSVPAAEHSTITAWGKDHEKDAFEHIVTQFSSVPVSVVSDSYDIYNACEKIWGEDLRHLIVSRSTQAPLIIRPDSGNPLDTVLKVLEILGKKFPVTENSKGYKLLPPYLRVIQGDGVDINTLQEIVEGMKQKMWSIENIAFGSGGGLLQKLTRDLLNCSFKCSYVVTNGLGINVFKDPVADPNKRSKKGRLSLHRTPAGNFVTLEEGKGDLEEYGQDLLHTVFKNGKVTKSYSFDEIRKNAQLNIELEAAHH

In the case of `O=[N+]([O-])c1ccc(O[C@@H]2O[C@H](COP(=O)(O)O)[C@@H](O)[C@H]2O)cc1` [5P-pNR, 5-phospho-p-nitrophenyl β-D-ribofuranoside], affinity in assay [1] was put at a Ki of 2.5 µM.

Take `NC(=O)c1ccc[n+]([C@@H]2O[C@H](COP(=O)([O-])O)[C@@H](O)[C@H]2O)c1` [NMN, nicotinamide mononucleotide]: the equilibrium dissociation constant (Kd) in assay [2] came to 34 ± 2 µM.

What is called Ki is a dissociation constant, usually derived from enzyme kinetics or from competition with a known ligand. A higher Ki goes with lower affinity. By Kd is commonly meant a measure of binding affinity in units of concentration. Low readings indicate a tighter complex, high ones a looser complex.
